Laboratory results published in patent US11053204B2, “Pyrimidinyloxy benzene derivatives as herbicides” (FMC Corporation, priority 2015, dated 2021).

Assays:
Format in all cases: in vivo
[1] = test system: galium (catchweed bedstraw, Galium aparine); test: Test C preemergence, plant response rating
[2] = test system: wild poinsettia (Euphorbia heterophylla); test: Test C preemergence, plant response rating
[3] = test system: nightshade (eastern black nightshade, Solanum ptycanthum); test: Test C preemergence, plant response rating
[4] = test system: oat, wild (wild oat Avena fatua); test: Test C preemergence, plant response rating
[5] = test system: johnsongrass (Sorghum halepense); test: Test C preemergence, plant response rating
[6] = test system: field violet (Viola arvensis); test: Test C postemergence, plant response rating; conditions: for Field Violet plant response rating: scale 0 to 100 (0 no effect, 100 complete control)
Procedure, shortened: (§1)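 Preemergence: seeds sown in loam–sand blend or silt loam and sprayed with test chemicals in a non-phytotoxic surfactant-containing solvent. Postemergence: potted plants at 2–18 cm (1–4-leaf stage) sprayed with the same formulation. After 13–15 d in greenhouse, visual rating versus controls on 0 (no effect) to 100 (complete control) scale.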

[7] = test system: geranium, cutleaf (cutleaf geranium, Geranium dissectum); test: Test C postemergence, plant response rating; conditions: for Geranium, Cutleaf plant response rating: scale 0 to 100 (0 no effect, 100 complete control)
Procedure, shortened: as §1

[8] = test system: speedwell (bird's-eye speedwell, Veronica persica); test: Test C postemergence, plant response rating; conditions: for Speedwell plant response rating: scale 0 to 100 (0 no effect, 100 complete control)
Procedure, shortened: as §1

[9] = test system: nightshade (eastern black nightshade, Solanum ptycanthum); test: Test C postemergence, plant response rating; conditions: for Nightshade plant response rating: scale 0 to 100 (0 no effect, 100 complete control)
Procedure, shortened: as §1

[10] = test system: Canada thistle (Cirsium arvense); test: Test C postemergence, plant response rating; conditions: for Canada Thistle plant response rating: scale 0 to 100 (0 no effect, 100 complete control)
Procedure, shortened: as §1

[11] = test system: johnsongrass (Sorghum halepense); test: Test C postemergence, plant response rating; conditions: for Johnsongrass plant response rating: scale 0 to 100 (0 no effect, 100 complete control)
Procedure, shortened: as §1

[12] = test system: field poppy (Papaver rhoeas); test: Test C postemergence, plant response rating; conditions: for Field Poppy plant response rating: scale 0 to 100 (0 no effect, 100 complete control)
Procedure, shortened: as §1

[13] = test system: wild poinsettia (Euphorbia heterophylla); test: Test C postemergence, plant response rating; conditions: for Poinsettia, Wild plant response rating: scale 0 to 100 (0 no effect, 100 complete control)
Procedure, shortened: as §1

[14] = test system: buckwheat, wild (wild buckwheat, Polygonum convolvulus); test: Test C postemergence, plant response rating; conditions: for Buckwheat, Wild plant response rating: scale 0 to 100 (0 no effect, 100 complete control)
Procedure, shortened: as §1

[15] = test system: pigweed, palmer (palmer pigweed, Amaranthus palmeri); test: Test C postemergence, plant response rating; conditions: for Pigweed, Palmer plant response rating: scale 0 to 100 (0 no effect, 100 complete control)
Procedure, shortened: as §1

[16] = test system: windgrass (Apera spica-venti); test: Test C postemergence, plant response rating
Procedure, shortened: as §1

[17] = test system: surinam grass (Brachiaria decumbens); test: Test C postemergence, plant response rating
Procedure, shortened: as §1

[18] = test system: windgrass (Apera spica-venti); test: Test C preemergence, plant response rating
[19] = test system: barnyardgrass (Echinochloa crus-galli); test: Test C preemergence, plant response rating; conditions: Preemergence
[20] = 125 g ai/ha, scale 0 to 100 (0 no effect, 100 complete control)

## CCCCC(=O)c1c(Br)cccc1Oc1ncc(Cl)cn1 [Compound 79]
[1]; 16 g ai/ha, scale 0 to 100
  Plant response rating, Galium: 0
[1]; 31 g ai/ha, scale 0 to 100
  Plant response rating, Galium: 0
[1]; 62 g ai/ha, scale of 0 to 100
  Plant response rating, Galium: 70
[1]; 125 g ai/ha, scale of 0 to 100
  Plant response rating, Galium: 5
[2]; 16 g ai/ha, scale 0 to 100
  Plant response rating, Poinsettia, Wild: 0
[2]; 31 g ai/ha, scale 0 to 100
  Plant response rating, Poinsettia, Wild: 0
[2]; 62 g ai/ha, scale 0 to 100
  Plant response rating, Poinsettia, Wild: 10
[2]; 125 g ai/ha, scale of 0 to 100
  Plant response rating, Poinsettia, Wild: 40
[3]; 16 g ai/ha, scale 0 to 100
  Plant response rating, Nightshade: 30
[3]; 31 g ai/ha, scale 0 to 100
  Plant response rating, Nightshade: 65
[3]; 62 g ai/ha, scale 0 to 100
  Plant response rating, Nightshade: 80
[3]; 125 g ai/ha, scale of 0 to 100
  Plant response rating, Nightshade: 95
[4]; 16 g ai/ha, scale 0 to 100
  Plant response rating, Oat, Wild: 0
[4]; 31 g ai/ha, scale 0 to 100
  Plant response rating, Oat, Wild: 0
[4]; 62 g ai/ha, scale 0 to 100
  Plant response rating, Oat, Wild: 5
[4]; 125 g ai/ha, scale of 0 to 100
  Plant response rating, Oat, Wild: 40
[5]; 16 g ai/ha, scale 0 to 100
  Plant response rating, Johnsongrass: 0
[5]; 31 g ai/ha, scale 0 to 100
  Plant response rating, Johnsongrass: 5
[5]; 62 g ai/ha, scale 0 to 100
  Plant response rating, Johnsongrass: 50
[5]; 125 g ai/ha, scale of 0 to 100
  Plant response rating, Johnsongrass: 70
[6]; 16 g ai/ha, scale of 0 to 100
  Plant response rating, Field Violet: 70
[6]; 31 g ai/ha, scale 0 to 100
  Plant response rating, Field Violet: 75
[6]; 62 g ai/ha
  Field Violet plant response rating: 85
[6]; 125 g ai/ha
  Field Violet plant response rating: 90
[7]; 16 g ai/ha, scale of 0 to 100
  Plant response rating, Geranium, Cutleaf: 45
[7]; 31 g ai/ha, scale 0 to 100
  Plant response rating, Geranium, Cutleaf: 50
[7]; 62 g ai/ha
  Geranium, Cutleaf plant response rating: 55
[7]; 125 g ai/ha
  Geranium, Cutleaf plant response rating: 65
[8]; 16 g ai/ha, scale of 0 to 100
  Plant response rating, Speedwell: 85
[8]; 31 g ai/ha, scale 0 to 100
  Plant response rating, Speedwell: 90
[8]; 62 g ai/ha
  Speedwell plant response rating: 98
[8]; 125 g ai/ha
  Speedwell plant response rating: 100
[9]; 16 g ai/ha, scale of 0 to 100
  Plant response rating, Nightshade: 90
[9]; 31 g ai/ha, scale 0 to 100
  Plant response rating, Nightshade: 95
[9]; 62 g ai/ha
  Nightshade plant response rating: 95
[9]; 125 g ai/ha
  Nightshade plant response rating: 100
[10]; 16 g ai/ha, scale of 0 to 100
  Plant response rating, Canada Thistle: 55
[10]; 31 g ai/ha, scale 0 to 100
  Plant response rating, Canada Thistle: 65
[10]; 62 g ai/ha
  Canada Thistle plant response rating: 70
[10]; 125 g ai/ha
  Canada Thistle plant response rating: 100
[11]; 16 g ai/ha, scale of 0 to 100
  Plant response rating, Johnsongrass: 40
[11]; 31 g ai/ha, scale 0 to 100
  Plant response rating, Johnsongrass: 65
[11]; 62 g ai/ha
  Johnsongrass plant response rating: 60
[11]; 125 g ai/ha
  Johnsongrass plant response rating: 85
[12]; 16 g ai/ha, scale of 0 to 100
  Plant response rating, Field Poppy: 85
[12]; 31 g ai/ha, scale 0 to 100
  Plant response rating, Field Poppy: 98
[12]; 62 g ai/ha
  Field Poppy plant response rating: 100
[12]; 125 g ai/ha
  Field Poppy plant response rating: 100
[13]; 16 g ai/ha, scale of 0 to 100
  Plant response rating, Poinsettia, Wild: 30
[13]; 31 g ai/ha, scale 0 to 100
  Plant response rating, Poinsettia, Wild: 75
[13]; 62 g ai/ha
  Poinsettia, Wild plant response rating: 80
[13]; 125 g ai/ha
  Poinsettia, Wild plant response rating: 85
[14]; 16 g ai/ha, scale of 0 to 100
  Plant response rating, Buckwheat, Wild: 75
[14]; 31 g ai/ha, scale 0 to 100
  Plant response rating, Buckwheat, Wild: 80
[14]; 62 g ai/ha
  Buckwheat, Wild plant response rating: 85
[14]; 125 g ai/ha
  Buckwheat, Wild plant response rating: 90
[15]; 16 g ai/ha, scale of 0 to 100
  Plant response rating, Pigweed, Palmer: 60
[15]; 31 g ai/ha, scale 0 to 100
  Plant response rating, Pigweed, Palmer: 80
[15]; 62 g ai/ha
  Pigweed, Palmer plant response rating: 70
[15]; 125 g ai/ha
  Pigweed, Palmer plant response rating: 85
[16]; 16 g ai/ha, scale of 0 to 100
  Plant response rating, Windgrass: 20
[16]; 31 g ai/ha, scale 0 to 100
  Plant response rating, Windgrass: 35
[16]; [20]
  Windgrass plant response rating: 30
[17]; 16 g ai/ha, scale of 0 to 100
  Plant response rating, Surinam Grass: 25
[17]; 31 g ai/ha, scale 0 to 100
  Plant response rating, Surinam Grass: 25
[17]; [20]
  Surinam Grass plant response rating: 35
[18]; 16 g ai/ha, scale 0 to 100
  Plant response rating, Windgrass: 60
[18]; 31 g ai/ha, scale 0 to 100
  Plant response rating, Windgrass: 80
[18]; 62 g ai/ha, scale 0 to 100
  Plant response rating, Windgrass: 100
[18]; 125 g ai/ha, scale of 0 to 100
  Plant response rating, Windgrass: 100
[19]; 62 g ai/ha, scale of 0 to 100
  Plant response rating, Barnyardgrass: 75
[19]; 125 g ai/ha, scale of 0 to 100
  Plant response rating, Barnyardgrass: 95
[19]; 16 g ai/ha, scale 0 to 100
  Plant response rating, Barnyardgrass: 5
[19]; 31 g ai/ha, scale 0 to 100
  Plant response rating, Barnyardgrass: 60
